Source: patent publication US9802943B2, “HIV inhibiting bicyclic pyrimidine derivatives” (Janssen Sciences Ireland UC, priority 2004, dated 2017)

Experiments:
Assay type in all cases: cell-based
[1] = tested on: Strain C (mutation L100I in HIV reverse transcriptase); assay: cellular antiviral assay, HIV mutant strain C; details: for pEC50 C: strain C, L100I; for EC50: Human immunodeficiency virus 1, read-out: pEC50 C (converted)
Protocol: (§1) Because of the increasing emergence of drug resistant HIV strains, the present compounds were tested for their potency against clinically isolated HIV strains harboring several mutations. These mutations are associated with resistance to reverse transcriptase inhibitors and result in viruses that show various degrees of phenotypic cross-resistance to the currently commercially available drugs such as for instance AZT and delavirdine.
(§2) The antiviral activity of the compound of the present invention has been evaluated in the presence of wild type HIV and HIV mutants bearing mutations at the reverse transcriptase gene. The activity of the compounds is evaluated using a cellular assay and the residual activity is expressed in pEC50 values. The columns IIIB and A-G in the table list the pEC50 values against various strains IIIB, A-G. • Strain IIIB is wild type HIV-LAI strain • Strain A contains mutation Y181C in HIV reverse transcriptase, • Strain B contains mutation K103N in HIV reverse transcriptase, • Strain C contains mutation L100I in HIV reverse transcriptase, • Strain D contains mutation Y188L in HIV reverse transcriptase, • Strain E contains mutations L100I and K103N in HIV reverse transcriptase, • Strain F contains mutations K103N and Y181C in HIV reverse transcriptase, and • Strain G contains mutations L100I, K103N, Y181C, V179I E138G L214F, V278V/I • and A327A/V in HIV reverse transcriptase.

[2] = tested on: Strain A (mutation Y181C in HIV reverse transcriptase); assay: cellular antiviral assay, HIV mutant strain A; details: for pEC50 A: strain A, Y181C; for EC50: Human immunodeficiency virus 1, read-out: pEC50 A (converted)
Protocol: as §1, §2

[3] = tested on: Strain IIIB (wild type HIV-LAI strain); assay: cellular antiviral assay, wild type HIV; details: for pEC50 IIIB: strain IIIB, wild type HIV-LAI; for EC50: Human immunodeficiency virus 1, IIIB, read-out: pEC50 IIIB (converted)
Protocol: as §1, §2

[4] = tested on: Strain E (mutations L100I and K103N in HIV reverse transcriptase); assay: cellular antiviral assay, HIV mutant strain E; details: for pEC50 E: strain E, L100I and K103N; for EC50: Human immunodeficiency virus 1, read-out: pEC50 E (converted)
Protocol: as §1, §2

[5] = tested on: Strain D (mutation Y188L in HIV reverse transcriptase); assay: cellular antiviral assay, HIV mutant strain D; details: for pEC50 D: strain D, Y188L; for EC50: Human immunodeficiency virus 1, read-out: pEC50 D (converted)
Protocol: as §1, §2

[6] = tested on: Strain F (mutations K103N and Y181C in HIV reverse transcriptase); assay: cellular antiviral assay, HIV mutant strain F; details: for pEC50 F: strain F, K103N and Y181C; for EC50: Human immunodeficiency virus 1, read-out: pEC50 F (converted)
Protocol: as §1, §2

[7] = tested on: Strain G (mutations L100I, K103N, Y181C, V179I E138G L214F, V278V/I and A327A/V in HIV reverse transcriptase); assay: cellular antiviral assay, HIV mutant strain G; details: for pEC50 G: strain G, L100I, K103N, Y181C, V179I E138G L214F, V278V/I and A327A/V
Protocol: as §1, §2

[8] = tested on: Strain B (mutation K103N in HIV reverse transcriptase); assay: cellular antiviral assay, HIV mutant strain B; details: for pEC50 B: strain B, K103N
Protocol: as §1, §2

Row | SMILES | pEC50 C [1] | pEC50 A [2] | pEC50 IIIB [3] | pEC50 E [4] | pEC50 D [5] | pEC50 F [6] | pEC50 G [7] | pEC50 B [8] | EC50 [1] | EC50 [2] | EC50 [3] | EC50 [4] | EC50 [5] | EC50 [6] | EC50 ([8]; Human immunodeficiency virus 1, read-out: pEC50 B (converted)) | EC50 ([7]; Human immunodeficiency virus 1, read-out: pEC50 G (converted))
1 | Cc1cc(C=CC#N)ccc1N1CCc2c(C)nc(Nc3ccc(C#N)cc3)nc21 (mixture of isomers) [Compound 1] | 8.9 | 7.9 | 8.4 | 7.8 | 7.7 | 7.1 | 5.5 | 9 | – | – | – | – | – | – | – | –
2 | Cc1nc(Nc2ccc(C#N)cc2)nc2c1CCN2c1c(F)cc(C=CC#N)cc1F (mixture of isomers) [Compound 2] | 9.3 | 7.9 | 9.1 | 9.1 | 8.4 | 7.4 | 5.7 | 9.2 | – | – | – | – | – | – | – | –
3 | CCc1cc(C=CC#N)cc(CC)c1N1CCc2c(C)nc(Nc3ccc(C#N)cc3)nc21 (mixture of isomers) [Compound 3] | 8.7 | 7.8 | 7.9 | 8.5 | 7.8 | 7.7 | 5.7 | 8.5 | – | – | – | – | – | – | – | –
4 | Cc1nc(Nc2ccc(C#N)cc2)nc2c1CCN2c1ccc(C=CC#N)cc1F (mixture of isomers) [Compound 5] | 7.8 | 6.3 | 7.7 | 6.9 | 6.6 | – | <4.6 | 7.9 | – | – | – | – | – | – | – | –
5 | CCc1cc(C=CC#N)cc(Br)c1N1CCc2c(C)nc(Nc3ccc(C#N)cc3)nc21 (mixture of isomers) [Compound 6] | 8.4 | 7.7 | 8.3 | 8.3 | 7.5 | 7.5 | 5.5 | 8.3 | – | – | – | – | – | – | – | –
6 | Cc1nc(Nc2ccc(C#N)cc2)nc2c1CCN2c1c(Cl)cc(C=CC#N)cc1Cl (mixture of isomers) [Compound 7a] | 9.1 | 7.9 | 8.7 | 8.6 | 7.7 | 7.7 | 5.4 | 8.7 | – | – | – | – | – | – | – | –
7 | Cc1nc(Nc2ccc(C#N)cc2)nc2c1CCN2c1c(Cl)cc(C=CC#N)cc1Cl (mixture of isomers) [Compound 7b] | 9.1 | 8.1 | 9.1 | 8.5 | 7.7 | 7.7 | 5.4 | 9 | – | – | – | – | – | – | – | –
8 | Cc1cc(C=CC#N)cc(Br)c1N1CCc2c(C)nc(Nc3ccc(C#N)cc3)nc21 (mixture of isomers) [Compound 9] | 8.7 | 8.3 | 8.9 | 7.8 | 8.4 | 7.7 | <4.6 | 8.4 | – | – | – | – | – | – | – | –
9 | Cc1cc(C=CC#N)cc(C)c1N1CCc2c(C)nc(Nc3ccc(C#N)cc3)nc21 (mixture of isomers) [Compound 11] | 8.8 | 8.2 | 8.8 | 8.4 | 8.1 | 7.9 | 5.4 | 9 | – | – | – | – | – | – | – | –
10 | CCc1cc(/C=C/C#N)ccc1N1CCc2c(C)nc(Nc3ccc(C#N)cc3)nc21 [Compound 4] | 9 | 8.3 | 8.4 | 8.1 | 7.9 | 7.6 | 5.1 | 9 | – | – | – | – | – | – | – | –
11 | COc1cc(/C=C/C#N)cc(C)c1N1CCc2c(C)nc(Nc3ccc(C#N)cc3)nc21 [Compound 8] | 8.3 | 7.6 | 8.5 | 7.6 | 7.5 | 7.2 | 4.9 | 8.4 | – | – | – | – | – | – | – | –
12 | Cc1nc(Nc2ccc(C#N)cc2)nc2c1CCN2c1c(F)cc(/C=C/C#N)cc1Cl [Compound 10] | 9.2 | 8.4 | 9.2 | 8.7 | 8 | 7.9 | 5.7 | 9.1 | – | – | – | – | – | – | – | –
13 | Cc1nc(Nc2ccc(C#N)cc2)nc2c1CCN2c1c(F)cc(/C=C\C#N)cc1Cl [Compound 13] | 8.4 | 7.1 | 8.4 | 7.8 | 7 | 7 | 5.1 | 8.4 | – | – | – | – | – | – | – | –
14 | Cc1cc(CCC#N)ccc1N1CCc2c(C)nc(Nc3ccc(C#N)cc3)nc21 [Compound 14] | 8.4 | 7.8 | 8.9 | 7.2 | 7 | 6.9 | 5.5 | 8.5 | – | – | – | – | – | – | – | –
15 | Cc1cc(CCC#N)cc(C)c1N1CCc2c(C)nc(Nc3ccc(C#N)cc3)nc21 [Compound 15] | – | 8.2 | 9 | 8 | 7.3 | 8 | 5.7 | 8.6 | – | – | – | – | – | – | – | –
16 | CCc1nc2cnc(Nc3ccc(C#N)cc3)nc2n1-c1c(C)cc(/C=C/C#N)cc1C [Compound 22] | – | – | – | – | – | – | – | – | 0.316 µM | 0.316 µM | 0.00398 µM | 3.16 µM | 1.58 µM | 1.58 µM | 0.00398 µM | –
17 | N#C/C=C/c1cc(F)c(-n2c(N)nc3cnc(Nc4ccc(C#N)cc4)nc32)c(Cl)c1 [Compound 27] | – | – | – | – | – | – | – | – | 0.0794 µM | 0.0794 µM | 0.02 µM | 0.631 µM | 0.501 µM | 0.2 µM | – | 6.31 µM
18 | Cc1cc(/C=C/C#N)cc(C)c1-n1nnc2cnc(Nc3ccc(C#N)cc3)nc21 [Compound 29] | 8.3 | 7.8 | 9.1 | 7.1 | 7.7 | – | 5.4 | 8.8 | – | – | – | – | – | – | – | –
